According to the supplement of paper PMC10307832:

Assays:
Assay in all cases: relative viability (nuclei count vs DMSO), 5 days (fraction); higher = more cells survive
Doxorubicin + Phenformin = compound: COc1cccc2c1C(=O)c1c(O)c3c(c(O)c1C2=O)C[C@@](O)(C(=O)CO)C[C@@H]3O[C@H]1C[C@H](N)[C@H](O)[C@H](C)O1 [Doxorubicin] + N=C(N)NC(=N)NCCc1ccccc1 [Phenformin] (partner 250 µM)
Procedure, shortened: (§1)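 Lung cancer cell lines in 1536-well plates got either a single drug or a fixed anchor-drug dose together with five library-drug doses (not always all listed) in √10 steps, by pin tool, on the day after seeding. Nuclei were counted after 5 days, and relative viability is the treated-to-vehicle ratio of nuclei counts. Values are medians of duplicate plates.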

[1] = compound: COc1cccc2c1C(=O)c1c(O)c3c(c(O)c1C2=O)C[C@@](O)(C(=O)CO)C[C@@H]3O[C@H]1C[C@H](N)[C@H](O)[C@H](C)O1 [Doxorubicin] + CC(=O)c1c(C)c2cnc(Nc3ccc(N4CCNCC4)cn3)nc2n(C2CCCC2)c1=O [Palbociclib] (partner 0.5 µM)
Procedure, shortened: as §1

Doxorubicin + Alpelisib = compound: COc1cccc2c1C(=O)c1c(O)c3c(c(O)c1C2=O)C[C@@](O)(C(=O)CO)C[C@@H]3O[C@H]1C[C@H](N)[C@H](O)[C@H](C)O1 [Doxorubicin] + Cc1nc(NC(=O)N2CCC[C@H]2C(N)=O)sc1-c1ccnc(C(C)(C)C(F)(F)F)c1 [Alpelisib] (partner 2 µM)
Procedure, shortened: as §1

Doxorubicin + Tozasertib = compound: COc1cccc2c1C(=O)c1c(O)c3c(c(O)c1C2=O)C[C@@](O)(C(=O)CO)C[C@@H]3O[C@H]1C[C@H](N)[C@H](O)[C@H](C)O1 [Doxorubicin] + Cc1cc(Nc2cc(N3CCN(C)CC3)nc(Sc3ccc(NC(=O)C4CC4)cc3)n2)n[nH]1 [Tozasertib] (partner 0.1 µM)
Procedure, shortened: as §1

Cell Line	relative viability (Doxorubicin + Phenformin; first compound 0.001 µM)	relative viability (Doxorubicin + Phenformin; first compound 0.003162 µM)	relative viability (Doxorubicin + Phenformin; first compound 0.01 µM)	relative viability (Doxorubicin + Phenformin; first compound 0.03162 µM)	relative viability (Doxorubicin + Phenformin; first compound 0.1 µM)	relative viability ([1]; first compound 0.001 µM)	relative viability ([1]; first compound 0.003162 µM)	relative viability ([1]; first compound 0.01 µM)	relative viability ([1]; first compound 0.03162 µM)	relative viability ([1]; first compound 0.1 µM)	relative viability (Doxorubicin + Alpelisib; first compound 0.001 µM)	relative viability (Doxorubicin + Alpelisib; first compound 0.003162 µM)	relative viability (Doxorubicin + Alpelisib; first compound 0.01 µM)	relative viability (Doxorubicin + Alpelisib; first compound 0.03162 µM)	relative viability (Doxorubicin + Alpelisib; first compound 0.1 µM)	relative viability (Doxorubicin + Tozasertib; first compound 0.001 µM)	relative viability (Doxorubicin + Tozasertib; first compound 0.003162 µM)	relative viability (Doxorubicin + Tozasertib; first compound 0.01 µM)	relative viability (Doxorubicin + Tozasertib; first compound 0.03162 µM)	relative viability (Doxorubicin + Tozasertib; first compound 0.1 µM)
HCC-44	0.207	0.244	0.341	0.151	0.162	0.99	0.981	1	1.03	0.933	0.823	0.801	0.751	0.78	0.93	0.767	0.882	0.797	0.284	0.321
RERF-LC-KJ	0.397	0.443	0.372	0.325	0.271	1.07	1.15	0.921	0.542	0.653	0.815	0.885	0.893	0.675	0.719	0.538	0.406	0.398	0.233	0.233
LXF-289	0.432	0.545	0.498	0.504	0.495	0.589	0.625	0.549	0.634	0.607	1.02	1.1	1.07	1.08	1.06	0.205	0.192	0.192	0.221	0.2
NCI-H838	0.502	0.607	0.556	0.346	0.19	0.254	0.234	0.229	0.222	0.184	1	1.05	0.979	0.919	0.461	0.281	0.306	0.261	0.274	0.226
HCC-827	0.429	0.409	0.401	0.401	0.408	0.465	0.458	0.484	0.465	0.593	1.04	1.15	0.968	1.02	1.05	0.45	0.391	0.407	0.416	0.432
NCI-H460	0.435	0.449	0.179	0.0505	0.0155	0.103	0.108	0.0853	0.041	0.007	0.584	0.386	0.288	0.024	0.0112	0.419	0.388	0.264	0.185	0.165
NCI-H3122	0.369	0.365	0.337	0.245	0.148	0.182	0.189	0.187	0.14	0.188	0.835	0.776	0.815	0.782	0.768	0.339	0.375	0.335	0.169	0.141
NCI-H2347	0.434	0.513	0.428	0.374	0.273	0.456	0.427	0.38	0.394	0.506	0.985	0.935	0.997	0.899	1.02	0.62	0.551	0.736	0.53	0.636
NCI-H1944	0.182	0.224	0.206	0.177	0.172	0.374	0.293	0.337	0.272	0.353	0.8	0.836	0.851	0.83	0.885	0.24	0.267	0.231	0.235	0.239
EKVX	0.255	0.236	0.237	0.245	0.22	0.794	0.312	0.342	0.31	0.374	0.968	0.971	0.797	0.803	0.861	0.35	0.434	0.383	0.415	0.342
NCI-H1355	0.423	0.488	0.465	0.449	0.416	0.423	0.432	0.388	0.38	0.392	0.868	0.96	0.889	0.839	0.823	0.632	0.508	0.52	0.443	0.598
NCI-H2228	0.284	0.312	0.242	0.107	0.118	0.508	0.914	0.555	0.301	0.184	0.724	0.822	0.647	0.393	0.198	0.276	0.269	0.21	0.125	0.107
SK-MES-1	0.655	0.648	0.612	0.285	0.222	0.326	0.319	0.321	0.281	0.23	0.956	0.877	0.819	0.785	0.573	0.856	0.867	0.583	0.211	0.162
EPLC-272H	0.325	0.32	0.395	0.256	0.299	0.279	0.28	0.301	0.328	0.29	0.898	1.04	0.913	0.902	1.02	0.423	0.401	0.238	0.26	0.506
HCC-366	–	0.614	0.601	0.48	0.395	0.352	0.456	0.361	0.275	0.361	–	0.348	0.439	0.369	0.367	–	0.156	0.179	0.106	0.158
PC-14	0.421	0.629	0.709	0.284	0.213	0.532	0.501	0.312	0.194	0.0531	0.892	1.01	0.963	0.986	1.01	0.598	0.573	0.599	0.59	0.487
SW 1573	0.337	0.355	0.216	0.111	0.0738	0.365	0.316	0.162	0.0939	0.0476	0.904	0.731	0.641	0.447	0.428	0.185	0.144	0.148	0.103	0.0879
COR-L 105	0.57	0.533	0.434	0.295	0.286	0.436	0.387	0.367	0.37	0.327	0.967	1.13	0.928	0.551	0.312	0.424	0.368	0.443	0.334	0.344
NCI-H322M	0.815	0.731	0.755	0.429	0.385	0.548	0.482	0.486	0.465	0.465	0.916	0.77	0.924	0.769	0.777	0.518	0.506	0.518	0.437	0.383
NCI-H1395	0.43	0.44	0.447	0.414	0.449	0.579	0.618	0.663	0.671	0.575	0.964	0.985	0.98	0.851	0.791	0.791	0.724	0.89	0.65	0.799
PC-3 [JPC-3]	0.448	0.478	0.515	0.468	0.471	0.526	0.585	0.544	0.518	0.522	1.02	1.02	1.05	1	1.03	0.887	0.888	0.915	0.866	0.856
NCI-H1975	0.397	0.422	0.383	0.219	0.179	0.413	0.568	0.501	0.383	0.324	0.64	0.597	0.625	0.334	0.232	0.745	0.711	0.664	0.303	0.178
CAL-12T	0.514	0.538	0.412	0.221	0.129	0.41	0.527	0.486	0.279	0.174	1.23	1.41	0.587	0.26	0.142	0.339	0.283	0.257	0.207	0.136
SK-LU-1	0.367	0.558	0.449	0.226	0.173	0.351	0.414	0.351	0.333	0.355	1.03	0.995	0.783	0.46	0.322	0.318	0.326	0.288	0.173	0.179
NCI-H650	0.543	0.419	0.509	0.424	0.373	0.371	0.362	0.325	0.293	0.326	1.31	1.13	1.06	0.938	0.822	0.908	0.736	0.784	0.582	0.63
NCI-H2170	0.379	0.388	0.411	0.485	0.432	0.409	0.389	0.386	0.313	0.447	0.896	0.966	0.727	0.682	0.877	0.741	0.711	0.651	0.581	0.701
NCI-H2023	0.431	0.398	0.321	0.126	0.0808	0.368	0.368	0.254	0.169	0.0764	0.595	0.617	0.524	0.203	0.0842	0.351	0.378	0.294	0.157	0.0799
